Reference: patent US9527837B2, “Inhibitors of EZH2” (Eli Lilly and Company, priority 2014, dated 2016)

Assays:
[1] = test system: tri-methylated H3K27 in MDA MB-231 (EZH2 WT) cells; assay: H3K27Me3 cell-based ELISA, MDA MB-231; settings: Homo sapiens, 48 hours
Experimental: (§1) The purpose of this assay is to evaluate the ability of a compound to inhibit the functional activity of EZH2 in cells, via measurement of levels of cell tri-methylated H3K27. Plate MDA MB-231 (EZH2 WT) or Karpas-422 (EZH2 Y641N) cells at 3500/100 μL/well (for MDA MB-231) or 5,000 cells/100 μL/well (for Karpas-422) in black 96-well BD BioCoat Cellware, Poly-Lysine plates (BD Biosciences, Cat#354640). Prepare compound plates in a Nunc™ 96-Well Polypropylene MicroWell Plate (Thermo Scientific Cat# #249944) with the addition of 40 μL/well of 10 mM compound (representing starting final concentration of 20 μM) or 40 μL DMSO, then prepare serial dilutions through the transfer of 20 μL from one well to the next. Add 5 μL of test compound to 245 μL/well of growth media in a separate Nunc™ 96-Well Polypropylene MicroWell Plate, and stamp 11 μL of the compound/media mix onto the cell plates. Place cell plates in a 37° C. incubator for 48 hours. Remove plates from the incubator, place the plates at room temperature for 15-20 minutes, and spin down the plates at 1000 rpm for 5 minutes. Fix cells with 30 μL 16% paraformaldehyde for 15 minutes at room temperature. Remove the paraformaldehyde and permeabilize cells with 100 μL/well PBS minus calcium or magnesium (−/−) containing 0.1% TRITON® X-100 for 20 minutes at room temperature. […]

[2] = test system: tri-methylated H3K27 in Karpas-422 (EZH2 Y641N) cells; assay: H3K27Me3 cell-based ELISA, Karpas-422; settings: Homo sapiens, 48 hours
Experimental: as §1

Karpas-422 cells = assay: Karpas-422 proliferation assay; assay type: cell-based; settings: Homo sapiens, KARPAS-422, 168 h; 7 days, Cell Titer GLO
Experimental: Plate Karpas-422 cells at a density of 5000 cells/100 μL/well in 96 well, black 96-well BD BioCoat Cellware, Poly-Lysine plates (BD Biosciences, Cat#354640). 40 μL of 10 mM test compound (representing starting final concentration of 20 μM) or add 100% DMSO to a Nunc 96-Well Polypropylene MicroWell Plate (Thermo Scientific Cat# #249944). Perform serial dilutions through the transfer of 20 μL from one well to the next. Add 5 μL of compound to a 245 μL/well of growth media in a separate Nunc 96-Well Polypropylene MicroWell Plate, and stamp 11 μL of the compound/media mix onto the cell plates. Incubate cell plates at 37° C. for 7 days. Add 100 μL/well of Cell Titer GLO® reagent (Promega, Cat# G7671) to the cell plates. Shake 2 minutes and measure luminescence using a plate reader.

[3] = test system: tumor tri-methylated H3K27 (Karpas-422 xenograft); assay: ELISA-based measurement of tumor-derived tri-methylated H3K27, Karpas-422 xenograft; assay type: in vivo; settings: mice, 50 mpk BID oral gavage, day 7, p<0.0001
Experimental: (§2) The purpose of this assay is to evaluate the ability of a test compound to inhibit tumor EZH2 function and EZH2-mediated tumor growth in vivo.
To acid-extract histones from tumors, place tumor sections of approximately 0.5 cm by 0.25 cm or 20-30 mg in weight in Lysing Matrix D 500×2 mL Add RNASE/DNASE-free tubes with beads for homogenization (MP Biomedicals, Cat#6913-500). Add 650 μL of Acid Lysis Buffer (0.4 N HCl containing Protease Inhibitor Cocktail Tablets (Roche; Cat#11836153001)). Homogenize tumor samples 2-3 times at speed 6 m/second for 20 seconds in a FastPrep FP120 homogenizer. Set samples on ice for 1 hour to separate. Transfer supernatants to an eppendorf tube and place on a tube rotator to lyse overnight at 4° C. Spin samples down at 8000 rpm for 10 minutes at 4° C. Transfer supernatants to a new tube and measure for protein concentration.
Add 150 μL/well of MSD Blocking Solution A (Meso Scale Discovery (MSD); final concentration of 3%) to a MULTI-SPOT® Tri-Methyl-Histone H3(K27) Singleplex plate (MSD; Cat#: N45CA-1). Shake at room temperature for 1 hour. Wash the plate with 1×MSD Tris Wash Buffer™ (MSD), (3×). Dispense 0.25 μg of tumor lysate in 25 μL Acid Lysis Buffer per well in triplicate. Shake overnight at 4° C. […] Add 150 μL/well 1×MSD® Read Buffer and measure chemoelectroluminescence using a MSD SECTOR® Imager 6000 instrument.

[4] = test system: tumor TNFRSF21 gene expression (Karpas-422 xenograft); assay: qPCR-based measurement of tumor-derived TNFRSF21 mRNA expression, Karpas-422 xenograft; assay type: in vivo, mice; settings: 50 mpk BID oral gavage, day 7, normalized to GAPDH, p<0.0001
Experimental: as §2
To isolate RNA from tumor tissue, place tumor sections of approximately 0.5 cm by 0.25 cm or 20-30 mg in weight in Lysing Matrix D 500×2 mL Add RNASE/DNASE-free tubes with beads for homogenization (MP Biomedicals, REF: 6913-500). Add 650 μL of RLT buffer from RNeasy® Kit (Qiagen; Cat#74104). Homogenize samples 2 to 3 times at speed 6 for 20 seconds in the FastPrep FP120 homogenizer. Set samples on ice to cool for 10 minutes. Centrifuge at 13 000 rpm for 10 minutes at 4° C. Place supernatants into a QIA tube and isolate RNA using the RNeasy® Kit (Qiagen; Cat#74104).
Prepare cDNA from 3 μg of tumor RNA using the High Capacity cDNA Reverse Transcription Kit (Applied Biosystems; Cat#4368813) and incubate samples in a PCR Thermocycler using the following cycle conditions: 10 minutes at 25° C.; 2 hours at 37° C., hold at 4° C. Amplify cDNA product using Thermo Scientific ABsolute Blue QPCR ROX Mix (Applied Biosystems; Cat# AB-4139) and Taqman probes for TNFRSF21 (Applied Biosystems; Cat# Hs01560899_m1) and housekeeping gene GAPDH (Applied Biosystems; Cat# Hs02758991-g1) in the Applied Biosystems ViiA 7™ Real-Time PCR cycler. Calculate TNFRSF21 cycle threshold values and normalize to its respective sample's GAPDH levels. […]

SMILES	IC50 [1] [nM]	IC50 [2] [nM]	IC50 (Karpas-422 cells) [nM]	inhibition of tumor methylation [3] [%]	increase in tumor TNFRSF21 gene expression [4] [fold]
COC1CN([C@H]2CC[C@H]([C@H](C)c3scc(C(=O)NCc4c(C)cc(C)[nH]c4=O)c3C)CC2)C1 [Example 2, N-[(4,6-Dimethyl-2-oxo-1,2-dihydropyridin-3-yl)methyl]-5-{(1S)-1-[trans-4-(3-methoxyazetin-1-yl)cyclohexyl]ethyl}-4-methylthiophene-3-carboxamide]	9.02 ± 2.69	144 ± 232	526		
COC1CN([C@H]2CC[C@H]([C@@H](C)c3scc(C(=O)NCc4c(C)cc(C)[nH]c4=O)c3C)CC2)C1 [Example 1, N-[(4,6-Dimethyl-2-oxo-1,2-dihydropyridin-3-yl)methyl]-5-{(1R)-1-[trans-4-(3-methoxyazetidin-1-yl)cyclohexyl]ethyl}-4-methylthiophene-3-carboxamide]	1.88 ± 0.66	3.79 ± 1.02	49.7 ± 33.9	53	25
